Experiments:
Format in all cases: biochemical
JAK2 = JAK2 (Homo sapiens, UniProt O60674); assay: JAK 2 enzymatic inhibitory activity IC50 assay (Caliper conversion rate); details: Km ATP, 28° C., 1 hour
Procedure, shortened: (§1)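 Human JAK1 or JAK2 enzyme was preincubated with graded compound (2% DMSO) in HEPES pH 7.5/Brij-35/DTT buffer (JAK1 also with Triton), then peptide substrate, 10 mM MgCl2 and ATP at Km were added. Reactions ran 1 hour at 28° C; Caliper conversion rate gave inhibition, averaged over two tests, for IC50.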

JAK3 = target: T1, JAK3 (Homo sapiens, UniProt P52333); assay: JAK 3 enzymatic inhibitory activity IC50 assay (Caliper conversion rate); details: Km ATP, 28° C., 1 hour; read-out: JAK 3 enzymatic inhibitory activity IC50
T1 sequence (P52333 1-1124): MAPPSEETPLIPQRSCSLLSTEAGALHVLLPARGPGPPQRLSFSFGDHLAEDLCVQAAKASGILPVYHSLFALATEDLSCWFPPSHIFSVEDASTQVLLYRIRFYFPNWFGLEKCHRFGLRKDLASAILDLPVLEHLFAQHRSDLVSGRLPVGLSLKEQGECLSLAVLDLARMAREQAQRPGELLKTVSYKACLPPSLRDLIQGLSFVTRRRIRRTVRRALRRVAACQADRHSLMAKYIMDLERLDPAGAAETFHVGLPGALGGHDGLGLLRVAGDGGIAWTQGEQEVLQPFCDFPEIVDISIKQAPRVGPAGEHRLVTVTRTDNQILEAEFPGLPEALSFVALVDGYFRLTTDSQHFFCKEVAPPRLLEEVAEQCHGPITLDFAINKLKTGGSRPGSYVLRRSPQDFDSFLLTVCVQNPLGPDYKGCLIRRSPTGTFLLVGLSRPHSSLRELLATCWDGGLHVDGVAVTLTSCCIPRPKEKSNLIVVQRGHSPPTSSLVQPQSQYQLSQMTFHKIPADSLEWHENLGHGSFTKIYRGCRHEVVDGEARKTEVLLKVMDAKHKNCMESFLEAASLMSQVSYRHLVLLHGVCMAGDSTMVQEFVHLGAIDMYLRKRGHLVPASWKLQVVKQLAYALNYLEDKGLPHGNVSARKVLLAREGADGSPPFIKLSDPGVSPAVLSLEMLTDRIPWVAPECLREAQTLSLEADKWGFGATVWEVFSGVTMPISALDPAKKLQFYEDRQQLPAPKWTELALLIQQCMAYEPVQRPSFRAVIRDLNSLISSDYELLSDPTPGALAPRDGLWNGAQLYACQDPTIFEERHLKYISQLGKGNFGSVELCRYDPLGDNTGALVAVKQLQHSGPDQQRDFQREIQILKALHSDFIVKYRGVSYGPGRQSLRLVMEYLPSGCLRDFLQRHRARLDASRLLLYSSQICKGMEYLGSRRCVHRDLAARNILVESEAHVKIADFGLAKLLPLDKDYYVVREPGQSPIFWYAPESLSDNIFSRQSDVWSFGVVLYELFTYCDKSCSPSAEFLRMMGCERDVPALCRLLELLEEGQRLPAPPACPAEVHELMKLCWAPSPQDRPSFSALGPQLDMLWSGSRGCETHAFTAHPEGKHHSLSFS

JAK1 = JAK1 (Homo sapiens, UniProt P23458); assay: JAK 1 enzymatic inhibitory activity IC50 assay (Caliper conversion rate); details: Km ATP, 28° C., 1 hour
Procedure, shortened: as §1

Sequence of JAK1 (P23458 whole entry, species assumed): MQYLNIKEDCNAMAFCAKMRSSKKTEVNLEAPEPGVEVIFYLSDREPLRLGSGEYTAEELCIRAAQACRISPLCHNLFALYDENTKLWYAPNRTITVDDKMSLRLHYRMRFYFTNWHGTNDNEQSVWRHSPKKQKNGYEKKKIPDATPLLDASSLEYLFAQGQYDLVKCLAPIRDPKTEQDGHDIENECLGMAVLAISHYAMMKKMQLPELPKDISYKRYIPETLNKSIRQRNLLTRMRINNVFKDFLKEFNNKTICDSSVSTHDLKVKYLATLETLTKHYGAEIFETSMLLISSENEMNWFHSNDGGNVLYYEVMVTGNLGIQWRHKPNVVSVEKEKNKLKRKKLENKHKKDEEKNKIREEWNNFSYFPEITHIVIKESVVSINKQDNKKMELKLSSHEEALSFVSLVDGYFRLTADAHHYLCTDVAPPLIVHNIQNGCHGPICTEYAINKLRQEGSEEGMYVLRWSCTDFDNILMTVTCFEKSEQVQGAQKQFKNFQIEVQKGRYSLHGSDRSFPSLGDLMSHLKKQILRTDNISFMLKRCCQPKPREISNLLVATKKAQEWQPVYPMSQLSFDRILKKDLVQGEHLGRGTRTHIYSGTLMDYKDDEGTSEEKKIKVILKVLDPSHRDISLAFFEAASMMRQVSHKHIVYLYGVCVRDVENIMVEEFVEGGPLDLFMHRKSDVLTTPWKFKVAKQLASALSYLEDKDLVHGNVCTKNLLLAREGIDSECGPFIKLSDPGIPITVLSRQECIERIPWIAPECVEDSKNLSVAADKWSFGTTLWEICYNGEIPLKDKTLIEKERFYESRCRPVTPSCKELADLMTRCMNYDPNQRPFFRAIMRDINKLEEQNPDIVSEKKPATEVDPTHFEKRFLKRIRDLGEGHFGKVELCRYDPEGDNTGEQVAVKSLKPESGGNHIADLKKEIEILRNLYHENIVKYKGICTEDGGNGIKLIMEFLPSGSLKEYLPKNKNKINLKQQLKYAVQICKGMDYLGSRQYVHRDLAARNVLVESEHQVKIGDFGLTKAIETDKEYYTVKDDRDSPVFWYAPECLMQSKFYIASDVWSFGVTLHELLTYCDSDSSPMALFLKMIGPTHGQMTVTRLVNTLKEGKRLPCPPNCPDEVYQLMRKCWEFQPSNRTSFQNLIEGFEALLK
Sequence of JAK2 (O60674 whole entry, species assumed): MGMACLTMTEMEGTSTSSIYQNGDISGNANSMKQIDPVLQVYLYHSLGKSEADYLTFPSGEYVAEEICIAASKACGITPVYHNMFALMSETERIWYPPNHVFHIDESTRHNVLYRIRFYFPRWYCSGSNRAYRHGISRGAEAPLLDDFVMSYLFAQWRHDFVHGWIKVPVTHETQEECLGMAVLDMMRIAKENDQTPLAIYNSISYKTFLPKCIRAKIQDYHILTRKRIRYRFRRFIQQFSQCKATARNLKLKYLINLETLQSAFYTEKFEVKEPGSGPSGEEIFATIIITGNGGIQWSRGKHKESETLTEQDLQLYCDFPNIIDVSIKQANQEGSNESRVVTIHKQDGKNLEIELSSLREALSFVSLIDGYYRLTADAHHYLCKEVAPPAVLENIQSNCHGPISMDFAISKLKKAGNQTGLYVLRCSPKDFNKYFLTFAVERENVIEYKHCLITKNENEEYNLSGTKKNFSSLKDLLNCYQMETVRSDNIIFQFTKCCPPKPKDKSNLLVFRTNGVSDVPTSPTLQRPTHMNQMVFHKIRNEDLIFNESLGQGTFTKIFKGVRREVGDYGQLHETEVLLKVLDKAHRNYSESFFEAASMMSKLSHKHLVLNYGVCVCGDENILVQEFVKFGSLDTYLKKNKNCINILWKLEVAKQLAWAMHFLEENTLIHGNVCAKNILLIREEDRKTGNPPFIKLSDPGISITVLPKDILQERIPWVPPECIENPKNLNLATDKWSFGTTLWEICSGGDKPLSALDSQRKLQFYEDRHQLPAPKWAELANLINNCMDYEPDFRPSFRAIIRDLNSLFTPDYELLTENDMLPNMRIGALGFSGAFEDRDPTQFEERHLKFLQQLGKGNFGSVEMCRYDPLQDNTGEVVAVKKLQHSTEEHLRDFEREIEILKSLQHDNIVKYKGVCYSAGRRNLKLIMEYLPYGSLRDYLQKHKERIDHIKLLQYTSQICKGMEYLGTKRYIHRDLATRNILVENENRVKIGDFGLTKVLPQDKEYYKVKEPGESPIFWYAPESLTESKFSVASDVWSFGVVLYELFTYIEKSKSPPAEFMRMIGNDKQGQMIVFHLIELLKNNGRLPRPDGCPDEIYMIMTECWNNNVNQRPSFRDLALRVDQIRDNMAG

SMILES | IC50 (JAK2) | IC50 (JAK3) | IC50 (JAK1)
CCS(=O)(=O)N1CC(CC#N)(n2cc(-c3nc(Nc4cnn(C5CCN(C)CC5)c4)nc4ccsc34)cn2)C1 [Compound T-64, 2-(1-(Ethylsulfonyl)-3-(4-(2-((1-(1-methylpiperidin-4-yl)-1H-pyrazol-4-yl)amino)thieno[3,2-d]pyrimidin-4-yl)-1H-pyrazol-1-yl)azetidin-3-yl)acetonitrile] | < 50 nM | < 50 nM | < 50 nM
CCS(=O)(=O)N1CC(CC#N)(n2cc(-c3nc(Nc4ccc(-n5cncn5)cc4)nc4ccsc34)cn2)C1 [Compound T-10, 2-(3-(4-(2-((4-(1H-1,2,4-Triazol-1-yl)phenyl)amino)thieno[3,2-d]pyrimidin-4-yl)-1H-pyrazol-1-yl)-1-(ethylsulfonyl)azetidin-3-yl)acetonitrile] | < 50 nM | 50 to 500 nM | < 50 nM
CCS(=O)(=O)N1CC(CC#N)(n2cc(-c3nc(Nc4ccncc4)nc4ccsc34)cn2)C1 [Compound T-21, 2-(1-(Ethylsulfonyl)-3-(4-(2-(pyridin-4-ylamino)thieno[3,2-d]pyrimidin-4-yl)-1H-pyrazol-1-yl)azetidin-3-yl)acetonitrile] | < 50 nM | 50 to 500 nM | 50 to 500 nM
Cn1cc(Nc2nc(-c3cnn(C4(CC#N)CCOCC4)c3)c3sccc3n2)cn1 [Compound T-44, 2-(4-(4-(2-((1-Methyl-1H-pyrazol-4-yl)amino)thieno[3,2-d]pyrimidin-4-yl)-1H-pyrazol-1-yl)tetrahydro-2H-pyran-4-yl)acetonitrile] | < 50 nM | 50 to 500 nM | 50 to 500 nM
CCS(=O)(=O)N1CC(CC#N)(n2cc(-c3nc(Nc4cnn(CCCC(=O)N(C)C)c4)nc4ccsc34)cn2)C1 [Compound T-37, 4-(4-((4-(1-(3-(Cyanomethyl)-1-(ethylsulfonyl)azetidin-3-yl)-1H-pyrazol-4-yl)thieno[3,2-d]pyrimidin-2-yl)amino)-1H-pyrazol-1-yl)-N,N-dimethylbutanamide] | < 50 nM | < 50 nM | < 50 nM
CCS(=O)(=O)N1CC(CC#N)(n2cc(-c3nc(Nc4cnn(C5CNC5)c4)nc4ccsc34)cn2)C1 [Compound T-65, 2-(3-(4-(2-((1-(Azetidin-3-yl)-1H-pyrazol-4-yl)amino)thieno[3,2-d]pyrimidin-4-yl)-1H-pyrazol-1-yl)-1-(ethylsulfonyl)azetidin-3-yl)acetonitrile] | < 50 nM | 50 to 500 nM | < 50 nM
CCS(=O)(=O)N1CC(CC#N)(n2cc(-c3nc(Nc4cnn(C(=O)COC)c4)nc4ccsc34)cn2)C1 [Compound T-32, 2-(1-(Ethylsulfonyl)-3-(4-(2-((1-(2-methoxyacetyl)-1H-pyrazol-4-yl)amino)thieno[3,2-d]pyrimidin-4-yl)-1H-pyrazol-1-yl)azetidin-3-yl)acetonitrile] | < 50 nM | < 50 nM | < 50 nM
CCS(=O)(=O)N1CC(CC#N)(n2cc(-c3nc(Nc4cnn(C5CCOCC5)c4)nc4ccsc34)cn2)C1 [Compound T-38, 2-(1-(Ethylsulfonyl)-3-(4-(2-((1-(tetrahydro-2H-pyran-4-yl)-1H-pyrazol-4-yl)amino)thieno[3,2-d]pyrimidin-4-yl)-1H-pyrazol-1-yl)azetidin-3-yl)acetonitrile] | < 50 nM | < 50 nM | < 50 nM
CCS(=O)(=O)N1CC(CC#N)(n2cc(-c3nc(Nc4cnn(C(C)C)c4)nc4ccsc34)cn2)C1 [Compound T-41, 2-(1-(Ethylsulfonyl)-3-(4-(2-((1-isopropyl-1H-pyrazol-4-yl)amino)thieno[3,2-d]pyrimidin-4-yl)-1H-pyrazol-1-yl)azetidin-3-yl)acetonitrile] | < 50 nM | < 50 nM | < 50 nM
N#CCC1(n2cc(-c3nc(Nc4ccccc4)nc4ccsc34)cn2)COC1 [Compound T-20, 2-(3-(4-(2-(Phenylamino)thieno[3,2-d]pyrimidin-4-yl)-1H-pyrazol-1-yl)oxetan-3-yl)acetonitrile] | < 50 nM | 500 to 1000 nM | 50 to 500 nM
N#CCNC(=O)c1ccc(-c2nc(Nc3ccccc3)nc3ccsc23)cc1 [Compound T-16, N-(Cyanomethyl)-4-(2-(phenylamino)thieno[3,2-d]pyrimidin-4-yl)benzamide] | > 1000 nM | > 1000 nM | > 1000 nM
C[C@@H](CO)n1cc(Nc2nc(-c3cnn(C4(CC#N)CN(S(C)(=O)=O)C4)c3)c3sccc3n2)cn1 [Compound T-85, (S)-2-(3-(4-(2-((1-(1-Hydroxypropan-2-yl)-1H-pyrazol-4-yl)amino)thieno[3,2-d]pyrimidin-4-yl)-1H-pyrazol-1-yl)-1-(methylsulfonyl)azetidin-3-yl)acetonitrile] | < 50 nM | < 50 nM | < 50 nM
CCS(=O)(=O)N1CC(CC#N)(n2cc(-c3nc(Nc4cnn(CC(F)(F)F)c4)nc4ccsc34)cn2)C1 [Compound T-69, 2-(1-(Ethylsulfonyl)-3-(4-(2-((1-(2,2,2-trifluoroethyl)-1H-pyrazol-4-yl)amino)thieno[3,2-d]pyrimidin-4-yl)-1H-pyrazol-1-yl)azetidin-3-yl)acetonitrile] | < 50 nM | 50 to 500 nM | < 50 nM

Reference: patent US9745320B2, “Five-and-six-membered heterocyclic compound, and preparation method, pharmaceutical composition and use thereof” (SHANGHAI CHEMEXPLORER CO., LTD., priority 2013, dated 2017)
